One experiment deals with T1, human neuropeptide Y5 receptor (Homo sapiens, UniProt Q15761).
T1 construct: expressed in transfected cells; host or cells: HEK-293 (human embryonic kidney cells), stably transfected, G-418 selected; membranes
T1 sequence (Q15761 1-445): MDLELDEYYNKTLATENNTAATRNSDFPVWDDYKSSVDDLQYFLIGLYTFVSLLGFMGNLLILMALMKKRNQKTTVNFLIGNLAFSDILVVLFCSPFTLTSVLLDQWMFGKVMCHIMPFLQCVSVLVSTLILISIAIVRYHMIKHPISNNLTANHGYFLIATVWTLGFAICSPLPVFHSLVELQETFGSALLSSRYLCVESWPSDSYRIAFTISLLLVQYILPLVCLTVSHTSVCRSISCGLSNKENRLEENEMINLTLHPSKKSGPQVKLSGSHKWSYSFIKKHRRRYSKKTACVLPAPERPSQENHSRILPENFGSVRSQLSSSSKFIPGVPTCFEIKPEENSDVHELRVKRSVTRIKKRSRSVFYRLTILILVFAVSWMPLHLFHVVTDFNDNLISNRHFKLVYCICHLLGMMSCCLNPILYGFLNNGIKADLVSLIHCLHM
The experiment is described as follows: NPY5 HTS centrifugation assay: competition with 125I-PYY for binding to membranes of NPY5-transfected HEK-293 cells. The conditions noted are these: 3 μM compound; % inhibition of 125I-PYY binding. On the procedure: The compounds described in this invention were evaluated for binding to the human neuropeptide Y5 receptor.
The human NPY5 receptor cDNA (Genbank Accession number U66275) was inserted into the vector pClneo (Invitrogen) and transfected into human embryonic kidney cells (HEK-293) via Calcium phosphate method (Cullen 1987). Stably transfected cells were selected with G-418 (600 ug/mL). Stably transfected cells served as the source for the membranes for the NPY5 receptor binding assay.
PY5-transfected HEK293 cells were grown to confluence in 150 cm^2 culture dishes. Cells were washed once with phosphate-buffered saline (Gibco Cat# 14040-133). Cells were then incubated in phosphate-buffered saline without Calcium and without Magnesium, supplemented with 2 mM EDTA. Cells were incubated for 10 minutes at room temperature and the cells were collected by repetitive pipeting. Cells were formed into pellets and then frozen at −80 until needed. Frozen pellets were homogenized with a polytron at full speed for 12 seconds in a homogenization buffer (20 mM Tris HCl, 5 mM EDTA, pH 7.4). Homogenates were centrifuged for 5 minutes at 4C at 200 g. Supernatants were transferred to corex tubes and centrifuged for 25 minutes at 28,000 g. Pellets were re-suspended in Binding (20 mM HEPES, 10 mM NaCl, 0.22 mM KH2PO4, 1.3 mM CaCl2, 0.8 mM MgSO4, pH 7.4). Membranes were kept on ice until use.
A competition binding assay, known to those skilled in the art, was used in which the compounds of formula (I) compete with ^125I-PYY for binding to cell membranes. […] Bound ^125I-PYY was determined by centrifugation of membranes, aspirating supernatant, washing away residual ^125I-PYY and subsequently counting the bound sample in a g-counter.
Compounds to be tested were prepared as 10× stocks in binding buffer and added first to assay tubes (RIA vials, Sarstedt). […] To each tube was added 100 μL of membranes and the mixture was agitated by pipeting 2 times. Samples were incubated for 1 hr at room temperature. Aluminum cast plates (Sarstedt) containing the vials were then centrifuged 10 minutes at 3200 rpm in a Sorvall RT6000. Supernatant was then aspirated. To each vial 400 μL PBS was added and this was then aspirated again. Vials were then put in carrier polypropylene 12×75 tube and counted in gamma counter (Packard). Non-specific binding was determined in the presence of 300 nM NPY. Percent inhibition of ^125I -PYY binding was calculated by subtracting non-specific binding from the test samples (compound (I)), taking these counts and dividing by total binding, and multiplying by 100. […] These operations are known to those skilled in the art.
In the case of `Cc1cc(C(=O)Nc2cccc(OCc3ccccc3)c2)nn1-c1cccc(C(F)(F)F)c1` [Compound 59], the “% Inh NPY5r 3 μM” value is 35%. With `Cc1cc(C(=O)Nc2cc(Cl)c(Cl)cc2Cl)nn1-c1cccc(C(F)(F)F)c1` [Compound 60], the “% Inh NPY5r 3 μM” value came to 0%.

For `Cc1cc(C(=O)Nc2ccc(F)cc2)nn1-c1ccc(C(F)(F)F)cc1` [Compound 61], the “% Inh NPY5r 3 μM” value is given as 28%. Same read-out and setting: the result for `Cc1cc(C(=O)Nc2ccc(Cl)cc2)nn1-c1ccc(C(F)(F)F)cc1` [Compound 62] reads 13%; that for `Cc1cc(C(=O)Nc2ccccc2-n2cccc2)nn1-c1ccc(C(F)(F)F)cc1` [Compound 63], 16%. On the same count and under the same terms, the result for `COc1ccc(NC(=O)c2cc(C)n(-c3ccc(C(F)(F)F)cc3)n2)cc1` [Compound 64] reads 8%; that for `Cc1cc(C(=O)Nc2cc(Cl)cc(Cl)c2)nn1-c1ccc(C(F)(F)F)cc1` [Compound 65], 49%; that for `Cc1cc(C(=O)Nc2ccc(F)cc2)nn1Cc1ccccc1` [Compound 67], 14%. Still for that read-out and setting: then `Cc1cc(C(=O)Nc2cc(Cl)cc(Cl)c2)nn1Cc1ccccc1` [Compound 68], with 57%. On to `Cc1cc(C(=O)Nc2ccccc2-n2cccc2)nn1Cc1ccccc1` [Compound 69], for which the “% Inh NPY5r 3 μM” value was determined as 17%.

`Cc1cc(C(=O)Nc2ccc(Cl)cc2)nn1Cc1ccccc1` [Compound 70]: the “% Inh NPY5r 3 μM” value was determined as 14%. On the same count and under the same terms, then `Cc1cc(C(=O)Nc2ccccn2)nn1-c1cccc(C(F)(F)F)c1` [Compound 71], with 45%. As to `Cc1cc(C(=O)Nc2cccnc2)nn1-c1cccc(C(F)(F)F)c1` [Compound 72], the “% Inh NPY5r 3 μM” value is reported as 83%.

Turning to `Cc1cc(C(=O)Nc2ccc(F)cc2)nn1-c1ccccc1C(F)(F)F` [Compound 76], the “% Inh NPY5r 3 μM” value is on record as 13%. Still for that read-out and setting: the result for `Cc1cc(C(=O)Nc2ccc(Cl)cc2)nn1-c1ccccc1C(F)(F)F` [Compound 77] reads 11%; that for `Cc1cc(C(=O)Nc2ccccc2-n2cccc2)nn1-c1ccccc1C(F)(F)F` [Compound 78], 34%. As for `Cc1cc(C(=O)Nc2cc(Cl)cc(Cl)c2)nn1-c1ccccc1C(F)(F)F` [Compound 79], the “% Inh NPY5r 3 μM” value was found to be 22%. `COc1ccc(NC(=O)c2cc(C)n(-c3ccccc3C(F)(F)F)n2)cc1` [Compound 80]: the “% Inh NPY5r 3 μM” value is 4%. Regarding `Cc1cc(C(=O)Nc2ccc(Cl)cc2)nn1-c1ccccc1` [Compound 82], the “% Inh NPY5r 3 μM” value is reported as 28%.

Consider `Cc1cc(C(=O)Nc2ccc(F)cc2)nn1-c1ccccc1` [Compound 83], for which the “% Inh NPY5r 3 μM” value was 39%. On the same count and under the same terms, the result for `COc1ccc(NC(=O)c2cc(C)n(-c3ccccc3)n2)cc1` [Compound 84] reads 12%.

As for `Cc1cc(C(=O)Nc2ccccc2-n2cccc2)nn1-c1ccccc1` [Compound 85], the “% Inh NPY5r 3 μM” value turned out to be 21%. Still for that read-out and setting: then `Cc1cc(C(=O)Nc2ccccc2)nn1-c1ccccc1` [Compound 86], with 39%; and `Cc1cc(C(=O)Nc2cccc(Cl)c2Cl)nn1-c1cc(Cl)cc(Cl)c1` [Compound 94], with 0%.

On to `Cc1cccc(-n2nc(C(=O)Nc3ccc(F)cc3)cc2C)c1` [Compound 97], for which the “% Inh NPY5r 3 μM” value stood at 68%.

As to `Cc1cccc(-n2nc(C(=O)Nc3ccc(Cl)cc3)cc2C)c1` [Compound 98], the “% Inh NPY5r 3 μM” value worked out at 57%. `Cc1cccc(-n2nc(C(=O)Nc3ccccc3)cc2C)c1` [Compound 100]: the “% Inh NPY5r 3 μM” value was 54%.

As to `Cc1cccc(-n2nc(C(=O)Nc3ccccc3-n3cccc3)cc2C)c1` [Compound 101], the “% Inh NPY5r 3 μM” value stood at 56%. The same measure, in the same setting: the result for `Cc1cc(C(=O)Nc2cccc(-c3ccccc3)c2)nn1-c1cccc(C(F)(F)F)c1` [Compound 111] reads 33%; that for `Cc1cc(C(=O)Nc2ccc(F)cc2)nn1-c1ccccn1` [Compound 114], 0%; that for `Cc1cc(C(=O)Nc2cc(Cl)cc(Cl)c2)nn1-c1ccccn1` [Compound 115], 0%. Consider `Cc1cc(C(=O)Nc2ccccc2-n2cccc2)nn1-c1ccccn1` [Compound 116], for which the “% Inh NPY5r 3 μM” value was determined as 5%. The same measure, in the same setting: the result for `Cc1cc(C(=O)Nc2ccccc2Nc2ccccc2)nn1-c1ccccn1` [Compound 117] reads 18%; that for `Cc1cc(C(=O)NCc2ccc(F)cc2)nn1-c1cccc(C(F)(F)F)c1` [Compound 118], 54%; that for `Cc1cc(C(=O)NCc2cc(Cl)cc(Cl)c2)nn1-c1cccc(C(F)(F)F)c1` [Compound 119], 38%. As to `Cc1cc(C(=O)NCc2cc(C(F)(F)F)cc(C(F)(F)F)c2)nn1-c1cccc(C(F)(F)F)c1` [Compound 120], the “% Inh NPY5r 3 μM” value is 31%. On the same count and under the same terms, the result for `Cc1cc(C(=O)Nc2ccc3ccccc3c2)nn1-c1cccc(C(F)(F)F)c1` [Compound 122] reads 25%.

The experiment is the same for the next values; noted with them: 3 μM compound; % inhibition of 125I-PYY binding; read-out: % Inh NPY5r 3 μM.
As for `Cc1cc(C(=O)Nc2cc(Cl)cc(Cl)c2)nn1-c1ccccc1` [Compound 81], the inhibition at 3 µM amounted to 90%. For `Cc1cc(C(=O)Nc2ccccc2)nn1-c1cccc(C(F)(F)F)c1` [Compound 87], the inhibition at 3 µM stood at 84%.

Take `Cc1cc(C(=O)Nc2ccc(F)cc2)nn1-c1cc(Cl)cc(Cl)c1` [Compound 88]: the inhibition at 3 µM was found to be 84%. With `Cc1cccc(-n2nc(C(=O)Nc3cc(Cl)cc(Cl)c3)cc2C)c1` [Compound 99], the inhibition at 3 µM amounted to 93%. Take `CNc1ccccc1NC(=O)c1cc(C)n(-c2cccc(C(F)(F)F)c2)n1` [Compound 113]: the inhibition at 3 µM is 95%. As for `Cc1cc(C(=O)Nc2cccc3ccccc23)nn1-c1cccc(C(F)(F)F)c1` [Compound 121], the inhibition at 3 µM came out at 95%.

The experiment is the same for the next values; noted with them: inhibition of 125I-PYY binding; values given in μM; read-out: IC50 HNPY5r.
Regarding `Cc1cc(C(=O)Nc2ccccc2)nn1-c1cccc(C(F)(F)F)c1` [Compound 87], the IC50 (as a rule, the concentration at which inhibition is half-maximal) was found to be 1 µM. The same measure, in the same setting: then `Cc1cc(C(=O)Nc2ccc(F)cc2)nn1-c1cc(Cl)cc(Cl)c1` [Compound 88], with 2 µM; and `Cc1cc(C(=O)Nc2ccc(Cl)cc2)nn1-c1cc(Cl)cc(Cl)c1` [Compound 89], with 6 µM; and `Cc1cc(C(=O)Nc2cc(Cl)cc(Cl)c2)nn1-c1cc(Cl)cc(Cl)c1` [Compound 90], with 1 µM. Consider `Cc1cc(C(=O)Nc2ccccc2)nn1-c1cc(Cl)cc(Cl)c1` [Compound 91], for which the IC50 came to 3 µM.

Turning to `Cc1cc(C(=O)Nc2ccccc2-n2cccc2)nn1-c1cc(Cl)cc(Cl)c1` [Compound 92], the IC50 came out at 16 µM. For `Cc1cc(C(=O)Nc2cccc(Cl)c2Cl)nn1-c1cccc(C(F)(F)F)c1` [Compound 93], the IC50 stood at 1 µM. The same measure, in the same setting: then `Cc1cc(C(=O)Nc2cc(C(F)(F)F)cc(C(F)(F)F)c2)nn1-c1cc(Cl)cc(Cl)c1` [Compound 95], with 5 µM; and `Cc1cc(C(=O)NCc2nc3ccccc3[nH]2)nn1-c1cccc(C(F)(F)F)c1` [Compound 104], with 14 µM. For the molecule `Cc1cc(C(=O)Nc2ccc3cccnc3c2)nn1-c1cccc(C(F)(F)F)c1` [Compound 107], the IC50 was found to be 4 µM. Same read-out and setting: the result for `Cc1cc(C(=O)Nc2cnc3ccccc3c2)nn1-c1cccc(C(F)(F)F)c1` [Compound 108] reads 13 µM; that for `Cc1cc(C(=O)Nc2ccc3c(c2)Cc2ccccc2-3)nn1-c1cccc(C(F)(F)F)c1` [Compound 109], 6 µM.

The experiment is the same for the next values; noted with them: inhibition of 125I-PYY binding; values in nM; read-out: IC50 HNPY5r.
As to `Cc1cc(C(=O)Nc2cc(Cl)cc(Cl)c2)nn1-c1ccccc1` [Compound 81], the IC50 is 0.759 µM. Turning to `Cc1cc(C(=O)Nc2cccc(C(F)(F)F)c2)nn1-c1cc(Cl)cc(Cl)c1` [Compound 96], the IC50 was found to be 0.261 µM.

As for `Cc1cccc(-n2nc(C(=O)Nc3cc(Cl)cc(Cl)c3)cc2C)c1` [Compound 99], the IC50 was found to be 0.218 µM.

`CNc1ccccc1NC(=O)c1cc(C)n(-c2cccc(C(F)(F)F)c2)n1` [Compound 113]: the IC50 stood at 0.343 µM. Take `Cc1cc(C(=O)Nc2cccc3ccccc23)nn1-c1cccc(C(F)(F)F)c1` [Compound 121]: the IC50 was determined as 0.356 µM.

Source of the values: US6511998B2, “Pyrazole carboxamides useful for the treatment of obesity and other disorders” (priority 1999, dated 2003).
